{
  "source": "patent US4276412A",
  "about": "“3-Trehalosamine compounds” (The Upjohn Company, priority 1979, dated 1981)",
  "key": {"[1]": {"test_system": "K. pneumoniae UC 58", "assay": "Minimal Inhibitory Concentration", "type": "cell-based", "settings": "Klebsiella pneumoniae, UC58"}, "[2]": {"test_system": "E. coli UC 45", "assay": "Minimal Inhibitory Concentration", "type": "cell-based", "settings": "Escherichia coli, UC45"}, "[3]": {"test_system": "S. marcescens UC 131", "assay": "Minimal Inhibitory Concentration", "type": "cell-based", "settings": "Serratia marcescens, UC131"}, "[4]": {"test_system": "P. mirabilis UC 6671", "assay": "Minimal Inhibitory Concentration", "type": "cell-based", "settings": "Proteus mirabilis, UC6671"}, "[5]": {"test_system": "various Gram-positive and Gram-negative bacteria", "assay": "antibacterial activity (in words)", "type": "cell-based", "settings": "disc assay", "experimental": "(§1) The testing was done on a standard microbiological disc assay system using 0.1 ml per 12.7 mm disc."}, "[6]": {"test_system": "Staphylococcus aureus", "assay": "antibacterial activity (in words)", "type": "cell-based"}, "[7]": {"assay": "stability at various pH", "type": "physicochemical", "settings": "any pH from about 1 to about 11"}, "[8]": {"test_system": "S. schottmuelleri UC 126", "assay": "Minimal Inhibitory Concentration", "type": "cell-based"}, "[9]": {"test_system": "B. subtilis (UC 564)", "assay": "biounit assay against B. subtilis (paper disc, zone of growth inhibition)", "type": "cell-based", "settings": "IR-45 (OH--) column fractions after lyophilization; 12.7 mm disc, 0.08 ml, 32° C., ca 18 hours", "experimental": "The active fractions during the recovery and purification process are determined by assay against the microorganism Bacillus subtilis. The assay procedure is as follows:\n5.0 mls culture are centrifuged (4000×g, 10'). Serial dilutions of the supernatant solution are performed in 0.1 M phosphate buffer, pH 7.7. […] The trays are incubated at 32° C. for ca 18 hours and the zone of growth inhibition recorded.\nThe designation BU, used herein, means biounit. A biounit is defined as the concentration of the antibiotic which gives a 20 mm zone of inhibition."}, "[10]": {"test_system": "D. pneumoniae UC 41", "assay": "Minimal Inhibitory Concentration", "type": "cell-based", "settings": "Streptococcus pneumoniae, UC41"}, "[11]": {"test_system": "S. flexneri UC 143", "assay": "Minimal Inhibitory Concentration", "type": "cell-based", "settings": "Shigella flexneri, UC143"}, "[12]": {"test_system": "P. vulgaris UC 93", "assay": "Minimal Inhibitory Concentration", "type": "cell-based", "settings": "Proteus vulgaris, UC93"}, "[13]": {"test_system": "Staphylococcus aureus UC 80", "assay": "standard microbiological disc assay, zone size", "type": "cell-based", "settings": "0.1 ml per 12.7 mm disc", "experimental": "as §1"}, "[14]": {"test_system": "Pseudomonas aeruginosa UC 95", "assay": "standard microbiological disc assay, zone size", "type": "cell-based", "settings": "0.1 ml per 12.7 mm disc", "experimental": "as §1"}, "[15]": {"test_system": "Bacillus subtilis UC 6033", "assay": "standard microbiological disc assay, zone size", "type": "cell-based", "settings": "0.1 ml per 12.7 mm disc", "experimental": "as §1"}, "[16]": {"test_system": "Bacillus subtilis UC 564", "assay": "standard microbiological disc assay, zone size", "type": "cell-based", "settings": "0.1 ml per 12.7 mm disc", "experimental": "as §1"}, "[17]": {"test_system": "Proteus vulgaris UC 93", "assay": "standard microbiological disc assay, zone size", "type": "cell-based", "settings": "0.1 ml per 12.7 mm disc", "experimental": "as §1"}, "[18]": {"test_system": "Staphylococcus aureus UC 3665", "assay": "standard microbiological disc assay, zone size", "type": "cell-based", "settings": "0.1 ml per 12.7 mm disc", "experimental": "as §1"}, "[19]": {"test_system": "Escherichia coli UC 51", "assay": "standard microbiological disc assay, zone size", "type": "cell-based", "settings": "0.1 ml per 12.7 mm disc", "experimental": "as §1"}, "[20]": {"test_system": "Sarcina lutea UC 130", "assay": "standard microbiological disc assay, zone size", "type": "cell-based", "settings": "0.1 ml per 12.7 mm disc", "experimental": "as §1"}, "[21]": {"test_system": "Klebsiella pneumoniae UC 57", "assay": "standard microbiological disc assay, zone size", "type": "cell-based", "settings": "0.1 ml per 12.7 mm disc", "experimental": "as §1"}, "[22]": {"assay": "Solubilities", "type": "physicochemical"}, "[23]": {"test_system": "S. pyogenes UC 152", "assay": "Minimal Inhibitory Concentration", "type": "cell-based", "settings": "Streptococcus pyogenes, UC152"}, "[24]": {"test_system": "S. typhi UC 215", "assay": "Minimal Inhibitory Concentration", "type": "cell-based", "settings": "Salmonella enterica, read-out: Minimal Inhibitory Concentration"}, "[25]": {"test_system": "S. faecalis UC 694", "assay": "Minimal Inhibitory Concentration", "type": "cell-based", "settings": "Enterococcus faecalis, UC694"}, "[26]": {"test_system": "B. subtilis", "assay": "antibacterial activity (in words)", "type": "cell-based"}, "[27]": {"test_system": "Ps. aeruginosa UC 95", "assay": "Minimal Inhibitory Concentration", "type": "cell-based", "settings": "Pseudomonas aeruginosa, UC95"}, "[28]": {"test_system": "S. aureus UC 76", "assay": "Minimal Inhibitory Concentration", "type": "cell-based", "settings": "Staphylococcus aureus, UC76"}},
  "data": [
    {"smiles": "N[C@@H]1[C@@H](O)[C@@H](O[C@H]2O[C@H](CO)[C@@H](O)[C@H](O)[C@H]2O)O[C@H](CO)[C@H]1O", "note": "[3-Trehalosamine]", "values": [
      {"measurement": "MIC", "setting": "[1]", "value": "> 1000", "unit": "µg/mL"},
      {"measurement": "MIC", "setting": "[2]", "value": "> 1000", "unit": "µg/mL"},
      {"measurement": "MIC", "setting": "[3]", "value": "> 1000", "unit": "µg/mL"},
      {"measurement": "MIC", "setting": "[4]", "value": "> 1000", "unit": "µg/mL"},
      {"measurement": "antibacterial activity", "setting": "[5]", "value": "active against various Gram-positive and Gram-negative bacteria"},
      {"measurement": "antibacterial activity", "setting": "[6]", "value": "active against Staphylococcus aureus"},
      {"measurement": "stability", "setting": "[7]", "value": "stable"},
      {"measurement": "MIC", "setting": "[8]", "value": "> 1000", "unit": "µg/mL"},
      {"measurement": "potency vs Bs (biounits; BU = concentration giving a 20 mm zone of inhibition)", "setting": "[9]", "value": 80, "unit": "BU/mg"},
      {"measurement": "MIC", "setting": "[10]", "value": 62.5, "unit": "µg/mL"},
      {"measurement": "MIC", "setting": "[11]", "value": "> 1000", "unit": "µg/mL"},
      {"measurement": "MIC", "setting": "[12]", "value": "> 1000", "unit": "µg/mL"},
      {"measurement": "Zone Size", "setting": "[13]", "value": 32, "unit": "mm"},
      {"measurement": "Zone Size", "setting": "[14]", "value": 0, "unit": "mm"},
      {"measurement": "Zone Size", "setting": "[15]", "value": 24, "unit": "mm"},
      {"measurement": "Zone Size", "setting": "[16]", "value": 36.5, "unit": "mm"},
      {"measurement": "Zone Size", "setting": "[17]", "value": 0, "unit": "mm"},
      {"measurement": "Zone Size", "setting": "[18]", "value": 30, "unit": "mm"},
      {"measurement": "Zone Size", "setting": "[19]", "value": 0, "unit": "mm"},
      {"measurement": "Zone Size", "setting": "[20]", "value": 0, "unit": "mm"},
      {"measurement": "Zone Size", "setting": "[21]", "value": 0, "unit": "mm"},
      {"measurement": "solubility", "setting": "[22]; any pH from about 1 to about 11", "value": "soluble"},
      {"measurement": "solubility", "setting": "[22]; water, dilute acid, dilute base", "value": "soluble in water, dilute acid and dilute base"},
      {"measurement": "MIC", "setting": "[23]", "value": 1000, "unit": "µg/mL"},
      {"measurement": "MIC", "setting": "[24]", "value": "> 1000", "unit": "µg/mL"},
      {"measurement": "MIC", "setting": "[25]", "value": "> 1000", "unit": "µg/mL"},
      {"measurement": "antibacterial activity", "setting": "[26]", "value": "active against B. subtilis"},
      {"measurement": "MIC", "setting": "[27]", "value": "> 1000", "unit": "µg/mL"},
      {"measurement": "MIC", "setting": "[28]", "value": "> 1000", "unit": "µg/mL"}
    ]}
  ]
}
